For one test, the target named is T1, mouse ELP2 protein (Mus musculus, UniProt Q91WG4).
T1 sequence (Q91WG4 1-831): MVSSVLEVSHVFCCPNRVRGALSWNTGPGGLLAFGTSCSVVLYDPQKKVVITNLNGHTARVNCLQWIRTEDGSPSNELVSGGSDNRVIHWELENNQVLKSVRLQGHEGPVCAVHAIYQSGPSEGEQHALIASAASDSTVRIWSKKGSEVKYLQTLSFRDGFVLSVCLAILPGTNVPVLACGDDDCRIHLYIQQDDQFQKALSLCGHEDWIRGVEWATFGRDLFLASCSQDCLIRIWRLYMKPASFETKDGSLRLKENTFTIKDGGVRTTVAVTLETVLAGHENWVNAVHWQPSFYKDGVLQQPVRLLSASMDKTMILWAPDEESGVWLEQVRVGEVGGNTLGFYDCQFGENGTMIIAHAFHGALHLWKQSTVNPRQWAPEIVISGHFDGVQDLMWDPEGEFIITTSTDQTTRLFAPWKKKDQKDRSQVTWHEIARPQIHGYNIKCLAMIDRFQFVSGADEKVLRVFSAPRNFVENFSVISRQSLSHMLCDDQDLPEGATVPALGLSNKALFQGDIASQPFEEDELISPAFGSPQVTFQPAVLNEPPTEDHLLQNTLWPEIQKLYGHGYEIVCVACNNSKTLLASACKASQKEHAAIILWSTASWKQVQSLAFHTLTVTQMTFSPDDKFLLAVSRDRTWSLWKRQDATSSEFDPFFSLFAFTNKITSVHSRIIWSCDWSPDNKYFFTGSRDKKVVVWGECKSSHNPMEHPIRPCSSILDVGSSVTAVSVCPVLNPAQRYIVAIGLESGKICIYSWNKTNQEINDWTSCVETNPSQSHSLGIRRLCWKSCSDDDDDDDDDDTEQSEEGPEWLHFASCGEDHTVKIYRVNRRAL
The test is described as follows: Surface plasmon resonance (SPR) affinity analysis, compounds fixed on the chip. As to conditions: for koff: read-out: Avg Koff; for kon: read-out: Avg Kon; for dissociation rate (in words): excluded from further testing. Type of test: binding. The procedure:
To validate the binding affinity of the candidate compounds with ELP2 protein, we tested the binding affinity through SPR assay. The experiment was performed as previous reported. Briefly, the candidate molecules are crossed onto the chip surface by hydrogen substitution reaction. During the experimental SPR, the chips were first primed with running buffer (1x PBS containing 5% DMSO). […] To validate the reliability of our method, we selected biotin and rapamycin binding with FKBP12 as a system control. Additionally, the solvents DMSO for compounds and PBS (pH = 7.0) for proteins were measured individually as blank controls and background noise controls.
Under the technique of photo-cross-linker biosensor chip, the candidate compounds were immobilized onto the chemically modified chip surface in random orientations and without any attached label or linker. After the compounds were fixed onto the surface of the chip, ELP2 protein solved in PBS were passed over the chip surface. The original sensor gram information was collected in real time.
The raw sensor gram information was collected in real time. The binding of each compound to the ELP2 protein during each cycle is represented by the response unit (RU) of surface resonance.

Test [1] deals with C2C12 cells. Kind of test: Alkaline phosphatase (ALP) activity under TNF-α-induced osteogenic differentiation inhibition, ID model. In kind it is cell-based. As to conditions: for effect on TNF-α-induced inhibition of osteoblast differentiation (ALP stain and activity) / pEC50: C2C12 cells; for effect on TNF-α-induced inhibition of osteoblast differentiation (ALP stain and activity): vs. TNF-α group; for pEC50: Mus musculus, ID model, TNF-α; for effect on TNF-α-induced inhibition (ALP), data not shown: cell model not specified (C2C12 / MC3T3-E1). The procedure: (§1) C2C12 cells were kept in DMEM complemented with the 10% fetal dairy serum and 1% penicillin/streptomycin and MC3T3-E1 cells in minimally needed culture medium (MEM, HyClone, GE Healthcare, USA) supplemented with 10% fetal bovine serum and 1% penicillin/streptomycin, were grown individually, and then cultured at 37.0°C, 5% CO2. As previously reported, cells were cultured for differentiation induction in the presence of TNF-α with or without our candidate compounds.
(§2) […] was detected by ALP activity via the alkaline phosphatase assay kit followed by the instruction. A BioTek microplate spectrophotometer was used to assay the apparent density at the wavelength of 405 nm. ALP activity values are equally common in the density protein found in stem cells determined to use the BCA Protein Assay Kit.
(§3) To determine the effect of the candidate compounds on TNF-α-induced osteogenic differentiation inhibition, we examined the activity of osteogenic marker alkaline phosphatase in the cells. As mentioned in Materials and Method, cells were grown in an adequate osteoblast differentiation environment and tested the alkaline phosphatase activity.
(§4) Figure 3 The ALP stain and activity measurements of 2# and 5# candidate on C2C12 and MC3T3-E1 cell osteogenic differentiations. 2# and 5# compounds show remarkable mitigation against TNF-α induced ALP activity inhibition. The ALP staining observation in each group (a, c). The relative ALP activity were measured from the cell lysates of each group (b, d). Data are mean ± SD; ^∗P < 0.05, ^∗∗P < 0.01, each experiment group vs. the TNF-α treatment cell group.

Test [2] has as its system MC3T3-E1 cells. Kind of test: Alkaline phosphatase (ALP) activity under TNF-α-induced osteogenic differentiation inhibition, SD model. In kind it is cell-based. The settings on record: for pEC50: Mus musculus, SD model, TNF-α; for effect on TNF-α-induced inhibition of osteoblast differentiation (ALP stain and activity): vs. TNF-α group. The procedure:
as §1, §2, §3, §4

Test [3] deals with C2C12 cells. Kind of test: Mineralization assessment by Alizarin Red S staining. The settings on record: day 35, vs. TNF-α control. In kind it is cell-based. An excerpt:
(§5) As reported, in two differentiation cell models, the culture medium was replaced every 3 days till 35th day. Mineralization of the cell was found by staining using the Optimized Alizarin Red S Stain Kit by the kit instructions.
(§6) In order to test the function of the candidate compounds on the mineralization activity during osteoblasts differentiation, the self-differentiation (SD) model and inflammatory-differentiated (ID) model cells were stained with Alizarin Red S staining on day 35 after differentiation induction, and the mineralization activity of each group can be estimated by the number of stained spots.
(§7) Figure 5 Alizarin Red S staining of differentiated osteogenic cells, the self-differentiation (SD) model, and inflammatory-differentiated (ID) model cells were stained with Alizarin Red S staining on day 35 after differentiation induction, and the mineralization activity of each group can be estimated by the number of stained spots (bar = 50 μm).

Test [4] concerns MC3T3-E1 cells. Described as above. Type of test: cell-based. The settings on record: day 35, vs. TNF-α control.
Excerpt: as §5, §6, §7

Test [5] has as its system COL-I, ALP, OCN, BMP-2, RUNX-2 and OSX genes in C2C12 and MC3T3-E1 cells. Kind of test: Q-PCR of osteogenic differentiation marker genes after TNF-α stimulation. Type of test: cell-based. The settings on record: day 7, C2C12 and MC3T3-E1, vs. TNF-α-stimulated cells. The procedure:
The total mRNA was extracted from cell culture using TRIzol reagent (Thermo Scientific USA). The concentration and quality of the RNA were checked using a NanoDrop™ 8000 spectrophotometer, and cDNA was then synthesized. Gene expression according to the recommendations of the reverse transcription kit was detected. Host gene β-actin was selected as the reference gene, and the gene expression level analysis was calculated by the 2^-ΔΔCt quantification method.
(§8) In order to investigate the changes in osteogenic differentiation associated molecules including COL-I, ALP, OCN, BMP-2, RUNX-2, and OSX genes, we performed Q-PCR and Western blot analysis on the differentiation cellular models on the 7th day after osteoblast cell differentiation are shown in Table 2. […] The level of above gene expression was raised in the 2# and the 5# candidate-treated cell with cell morphology phenotype differentiation when compared to the cell stimulated with TNF-α (Figure 6). A further study of the expression of osteoblastic markers at the protein level was performed using Western blot.
Figure 6 Effect of 2# and 5# treatment on TNF-α-stimulated C2C12 (a) and MC3T3-E1 (b) cell osteoblast differentiation-associated marker gene expression. Q-PCR analysis in the differentiation was conducted on the 7th day after osteoblast cell differentiation in the ID and SD models. […]

In test [6] the test system is osteogenic differentiation marker proteins in differentiation model cells. Kind of test: Western blot of osteogenic differentiation markers after TNF-α treatment. In kind it is cell-based. As to conditions: day 7, vs. TNF-α treatment. The procedure: After treatment, using PBS to wash the cells, the cells were lysed with RIPA lysis buffer. The cell lysate was then separated by SDS-PAGE. All proteins were transferred to PVDF membranes (Bio-Rad, USA). The PVDF membrane was then blocked with 5% skim milk in Tris-buffered physiological saline -0.1% Tween-20 for 1 hour and incubated with the following primary antibody: anti-ALP antibody (rabbit), anti-COL-1 antibody (mouse), anti-OCN antibody (mouse), anti-BMP-2 antibody (mouse), anti-Runx2 antibody (mouse), Anti-Osterix (rabbit), and anti-β-actin (mouse), followed by suitable horseradish peroxidase- (HRP-) labeled secondary antibody, blocking buffer for goat anti-rabbit IgG. Images were captured using G&E imaging system.
as §8, with “blot. […]” for “blot.”

Where [7] appears, read: SPR, Elp2 protein 200 nM to 3200 nM passed over the immobilized compound.
Setting [8] is: SPR, Elp2 protein 200 nM to 3200 nM passed over the immobilized compound, read-out: Avg KD.

pEC50, pKd: −log10 of the molar value. Where two headings read alike, the source gives them in different places.

For the compound `COc1ccc2c(c1)C(CCn1c(C)cc(O)cc1=O)C(=O)N2` (centres unmarked) [10#], on mouse ELP2 protein (setting [7]), the koff was found to be 0.504 s⁻¹ and the kon is 2.18 M⁻¹ s⁻¹.
On the same counts, the results for `COCn1ncnc1NCCn1c(C)cc(O)cc1=O` [4#] are 0.342 s⁻¹ and 1.85 M⁻¹ s⁻¹.
On to `COc1cccc(N2Cc3nn(Cc4ccccc4Cl)c(=O)n3C2=O)c1` [6#], for which, on mouse ELP2 protein (setting [7]), the koff is 0.415 s⁻¹ and the kon came out at 2.54 M⁻¹ s⁻¹.
Regarding `COc1ccc([C@H](CC(=O)N[C@@H](Cc2ccccc2)C(N)=O)c2oc(C)cc(=O)c2O)cc1` [1#], the pKd on mouse ELP2 protein (setting [8]) was 3.93. Moreover, at mouse ELP2 protein (setting [7]), the off-rate constant (koff) turned out to be 0.234 s⁻¹ and the kon stood at 1980 M⁻¹ s⁻¹. For the same compound, the “dissociation rate (in words)” value on mouse ELP2 protein (SPR) was “much faster dissociation rates”.
`O=C1c2ccccc2-c2c1c1ccccc1c(=O)n2NCCO` [2#]: the pKd on mouse ELP2 protein (setting [8]) is 5.84. The off-rate (koff) on mouse ELP2 protein (setting [7]) amounted to 0.000241 s⁻¹. For the same compound, at mouse ELP2 protein (setting [7]), the on-rate (kon) was determined as 165 M⁻¹ s⁻¹. Also, the “effect on TNF-α-induced inhibition of osteoblast differentiation (ALP stain and activity)” value in the test on C2C12 cells [1] and in the test with MC3T3-E1 cells [2] was “significant ease to TNF-α-induced inhibition of osteoblast differentiation” throughout. The pEC50 in the test on C2C12 cells [1] was 4.83; with MC3T3-E1 cells [2], 4.53. Moreover, the “mineralization activity (Alizarin Red S stained spots)” value (from here on “mineralization activity”) in the test on C2C12 cells [3] and in the test on MC3T3-E1 cells [4] was “increased the red spot on the cell surface” throughout. For the same compound, the “expression level of osteogenic differentiation marker genes (COL-I, ALP, OCN, BMP-2, RUNX-2, OSX)” value in test [5] is “raised”. In test [6], the “expression of osteogenic differentiation marker proteins” value was “increased”.
Regarding `Cc1cc(=O)c2c(o1)[C@H](c1cccc(O)c1)CC(=O)O2` [3#], at mouse ELP2 protein (setting [7]), the off-rate (koff) turned out to be 0.45 s⁻¹ and the on-rate constant (kon) worked out at 2.31 M⁻¹ s⁻¹.
As to `Cc1cc(O)cc(=O)n1C[C@@H](O)c1cccc(O)c1` [11#], the negative-log Kd (pKd) at mouse ELP2 protein (setting [8]) was 5.46. Also, at mouse ELP2 protein (setting [7]), the off-rate constant (koff) is 0.000774 s⁻¹ and the association rate constant (kon) came out at 222 M⁻¹ s⁻¹. Further, the “effect on TNF-α-induced inhibition (ALP), data not shown” value with C2C12 cells [1] is reported as “only slightly easing of the inhibition resulting from TNF-α”.
For `CC1CCCC2(C)CC3OC(=O)C(CN4CCN(C(=O)c5ccco5)CC4)C3C=C12` (centres unmarked) [8#], in that order: 7.03, 0.00105 s⁻¹, 11200 M⁻¹ s⁻¹ and “only slightly easing of the inhibition resulting from TNF-α”.
As to `COc1ccc(C(CC(=O)NC(C)C(N)=O)c2oc(C)cc(=O)c2O)cc1` (centres unmarked) [7#], on mouse ELP2 protein, the negative-log Kd (pKd) was 5.50, the koff stood at 0.0011 s⁻¹ and the kon was 347 M⁻¹ s⁻¹. Also, the “effect on TNF-α-induced inhibition (ALP), data not shown” value in the test on C2C12 cells [1] is reported as “only slightly easing of the inhibition resulting from TNF-α”.
Turning to `Cc1cc(O)cc(=O)n1C[C@H](O)c1ccc(O)cc1` [9#], on mouse ELP2 protein (setting [8]), the pKd was 3.83. Also, on mouse ELP2 protein (setting [7]), the off-rate constant (koff) was 0.075 s⁻¹ and the kon turned out to be 502 M⁻¹ s⁻¹. In addition, on mouse ELP2 protein (SPR), the “dissociation rate (in words)” value was “much faster dissociation rates”.
Consider `COc1cc(CCN)c(-c2csc(-c3ccc(O)cc3)n2)cc1OC` [5#], for which the negative logarithm of the Kd (pKd) on mouse ELP2 protein (setting [8]) is 5.48. Also, at mouse ELP2 protein (setting [7]), the koff was 0.0122 s⁻¹ and the kon is 3720 M⁻¹ s⁻¹. Also, in the test on C2C12 cells [1], the “effect on TNF-α-induced inhibition of osteoblast differentiation (ALP stain and activity)” value is listed as “significant ease to TNF-α-induced inhibition of osteoblast differentiation”; the negative-log EC50 (pEC50) is 4.92. In the test on MC3T3-E1 cells [2], the negative logarithm of the EC50 (pEC50) was 4.74; the “effect on TNF-α-induced inhibition of osteoblast differentiation (ALP stain and activity)” value was “significant ease to TNF-α-induced inhibition of osteoblast differentiation”. In the test with C2C12 cells [3], the “mineralization activity” value was “increased the red spot on the cell surface”. Moreover, in the test on MC3T3-E1 cells [4], the “mineralization activity” value is “increased the red spot on the cell surface”. In addition, the “expression level of osteogenic differentiation marker genes (COL-I, ALP, OCN, BMP-2, RUNX-2, OSX)” value in test [5] is listed as “raised”. In addition, the “expression of osteogenic differentiation marker proteins” value in test [6] was “increased”.

The values above are taken from article PMC8629650, “Novel Elongator Protein 2 Inhibitors Mitigating Tumor Necrosis Factor-α Induced Osteogenic Differentiation Inhibition” (BioMed Research International, 2021).
